The values that follow come from US20230172940A1, “METHODS OF EXTENDING LIFESPAN BY ADMINISTERING FERROPTOSIS INHIBITORS” (COLLABORATIVE MEDICINAL DEVELOPMENT, LLC, priority 2020, published 2023).

The test system of this test is C. elegans. Briefly: Temporal rescaling by temperature: lifespan at 20° C. and 25° C. The test is classed as in vivo, Caenorhabditis elegans. On the procedure: The effect of temperature is evaluated separately for control and SIH treated worms, population sizes for each replicate are shown in Table 20.
For each of two replicates and treatment factors, the AFT model with Weibull baseline hazard was fitted with temperature as the covariate. The residuals from this model were then subjected to the K-S test.
For both populations, being exposed to the higher temperature of 25° C. accelerates life as expected, by approximately 30% for control worms (Otemp=0.72 (95% Cl: 0.68; 0.77) and 20% for SIH worms (Otemp=0.81 (95% Cl: 0.78; 0.84).

In the case of `O=C(N/N=C/c1ccccc1O)c1ccncc1` [SIH, Salicylaldehyde isonicotinoyl hydrazone], the “lifespan extension at two temperatures” value was “still extended lifespan by a similar dimension”.
